In article PMC10985270 (Acta Pharmaceutica Sinica. B, 2024):
Where two headings read alike, the source gives them in different places.

Columns and labels:
[1] = target: T1, hMAO-B (Homo sapiens, UniProt P27338); experiment: hMAO-B fluorescence bioassay; assay type: biochemical; conditions: for SI: selectivity index for the MAO-B isoform: ratio IC50(MAO-A)/IC50(MAO-B)
T1 sequence (P27338 1-520): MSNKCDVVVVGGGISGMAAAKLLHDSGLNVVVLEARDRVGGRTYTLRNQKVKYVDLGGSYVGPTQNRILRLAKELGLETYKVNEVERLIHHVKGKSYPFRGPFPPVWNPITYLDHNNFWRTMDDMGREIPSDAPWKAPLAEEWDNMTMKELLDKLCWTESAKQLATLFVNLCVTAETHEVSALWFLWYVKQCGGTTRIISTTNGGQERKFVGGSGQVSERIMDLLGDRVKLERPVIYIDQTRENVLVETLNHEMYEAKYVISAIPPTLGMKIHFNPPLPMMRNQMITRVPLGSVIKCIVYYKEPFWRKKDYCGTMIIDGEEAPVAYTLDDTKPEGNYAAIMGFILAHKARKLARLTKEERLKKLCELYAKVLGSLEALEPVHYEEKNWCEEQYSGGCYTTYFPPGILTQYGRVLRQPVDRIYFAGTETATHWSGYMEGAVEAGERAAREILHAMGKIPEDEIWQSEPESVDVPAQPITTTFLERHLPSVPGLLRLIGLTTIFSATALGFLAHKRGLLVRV

[2] = target: T2, hMAO-A (Homo sapiens, UniProt P21397); experiment: hMAO-A fluorescence bioassay; assay type: biochemical
T2 sequence (P21397 1-527): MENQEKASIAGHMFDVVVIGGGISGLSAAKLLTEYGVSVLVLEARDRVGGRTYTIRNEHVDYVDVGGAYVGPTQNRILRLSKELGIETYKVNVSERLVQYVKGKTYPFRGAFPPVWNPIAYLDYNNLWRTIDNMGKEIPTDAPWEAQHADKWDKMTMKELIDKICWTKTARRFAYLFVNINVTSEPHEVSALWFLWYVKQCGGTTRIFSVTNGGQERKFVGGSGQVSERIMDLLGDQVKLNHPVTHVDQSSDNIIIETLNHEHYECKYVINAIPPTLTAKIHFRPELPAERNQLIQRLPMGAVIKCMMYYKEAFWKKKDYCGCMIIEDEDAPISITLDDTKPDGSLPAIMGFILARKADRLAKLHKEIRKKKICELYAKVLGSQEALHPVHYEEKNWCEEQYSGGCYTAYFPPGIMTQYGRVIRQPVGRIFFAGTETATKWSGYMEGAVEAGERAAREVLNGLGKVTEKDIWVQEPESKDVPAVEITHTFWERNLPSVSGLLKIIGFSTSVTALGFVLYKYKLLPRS

[3] = target: T1, hMAO-B; experiment: At-line nanofractionation hMAO-B screening of mixed standards; assay type: biochemical; conditions: mixed standards 100 μmol/L
[4] = target: T1, hMAO-B; experiment: Reversibility of hMAO-B inhibition; assay type: biochemical; conditions: KYN 46 μmol/L
[5] = tested on: SH-SY5Y cells; experiment: Neuroprotection against 6-OHDA-induced toxicity in SH-SY5Y cells; assay type: cell-based; conditions: Homo sapiens, read-out: EC50, neuroprotective effect

Row | SMILES | SI: selectivity index for the MAO-B isoform [1] | IC50 [2] | IC50 [1] | EC50 [5] | also measured
1 | O=C(O)/C=C/c1ccc(O)c(O)c1 [Caffeic acid] | 1.840 | 60.9 ± 5.85 µM | – | – | IC50 ([1]; Inhibition (IC50) hMAO-B, Table 1): 33.1 ± 7.57 µM
2 | COc1ccc(-c2coc3cc(O)ccc3c2=O)cc1O [Calycosin, reference compound] | – | – | 24 µM | – | Activity peak in bioactivity chromatogram [3]: displayed inhibitory activity
3 | O=C(/C=C/c1ccc(O)c(O)c1)O[C@@H]1C[C@](O)(C(=O)O)C[C@@H](O)[C@H]1O [Chlorogenic acid] | – | 82.4 ± 14.6 µM | 69.6 ± 14.4 µM | – | –
4 | CCCC[C@@H]1OC(=O)C2=CCCC[C@H]21 [Neocnidilide] | 207.362 | 102 ± 13.1 µM | 0.494 ± 0.132 µM | 1160 nM | Inhibitory activity against hMAO-B (in words) ([1]; phthalides): highest activity; SI: selectivity index for the MAO-B isoform ([1]; listed as neocnidilide): 207; Reversibility of hMAO-B inhibition [4]: reversible
5 | C#CCN[C@@H]1CCc2ccccc21 [Rasagiline] | – | – | – | 896 nM | Activity peak in bioactivity chromatogram [3]: displayed inhibitory activity
6 | C[C@H](NCc1ccc(OCc2cccc(F)c2)cc1)C(N)=O [Safinamide, reference compound] | – | – | – | 1080 nM | Reversibility of hMAO-B inhibition [4]: reversible
7 | COc1cc(C=O)ccc1O [Vanillin] | 1.884 | 86.1 ± 15.3 µM | 45.7 ± 2.6 µM | – | –
